# Read-outs that look alike come from different tables or passages of the source.
# Columns and labels:
# MDMX = molecular target: T1, MDMX (Homo sapiens, UniProt O15151); experiment: Competitive fluorescence polarization assay for MDMX; format: binding; details: competitive FP assay
# T1 sequence (O15151 1-125): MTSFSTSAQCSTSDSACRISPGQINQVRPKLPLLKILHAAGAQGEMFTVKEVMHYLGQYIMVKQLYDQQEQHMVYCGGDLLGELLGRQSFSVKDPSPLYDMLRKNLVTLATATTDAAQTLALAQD
# MDM2 = MDM2 (Homo sapiens, UniProt Q00987); experiment: Competitive fluorescence polarization assay for MDM2; format: binding; details: competitive FP assay, MDM2
# Sequence of MDM2 (Q00987 1-125): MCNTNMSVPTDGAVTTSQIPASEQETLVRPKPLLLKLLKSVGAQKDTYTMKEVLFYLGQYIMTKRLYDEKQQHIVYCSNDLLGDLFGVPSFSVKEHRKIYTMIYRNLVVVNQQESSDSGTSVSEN
Compound,IC50 (MDMX; read-out: IC50 (MDMX)),Ki (MDMX; read-out: Ki (MDMX)),IC50 (MDM2; read-out: IC50 (MDM2)),Ki (MDM2; read-out: Ki (MDM2)),IC50 (MDMX; IC50 (MDMX)),Ki (MDMX; Ki (MDMX)),IC50 (MDM2; IC50 (MDM2)),Ki (MDM2; Ki (MDM2))
"CCCC[C@H](NC(=O)[C@H](C)NC(=O)[C@H](C)NC(=O)[C@]1(C)CCCC=CCCCCCC[C@@](C)(NC(=O)[C@H](Cc2ccccc2)NC(=O)[C@@H](NC(=O)[C@H](CC(C)C)NC(C)=O)[C@@H](C)O)C(=O)N[C@@H](C)C(=O)N[C@@H](Cc2ccc(O)cc2)C(=O)N[C@@H](Cc2c[nH]c3ccccc23)C(=O)N[C@@H](C)C(=O)N[C@@H](CCC(N)=O)C(=O)N[C@@H](CC(C)C)C(=O)N1)C(=O)N[C@H](CC(C)C)C(N)=O (single isomer, unassigned) [compound 85]",100 to 1000 nM,10 to 100 nM,10 to 100 nM,< 10 nM,,,,
"CC(=O)N[C@@H](CC(C)C)C(=O)N[C@H](C(=O)N[C@@H](Cc1ccccc1)C(=O)N[C@]1(C)CCCCCCC=CCCC[C@@](C)(C(=O)N[C@@H](CO)C(=O)N[C@H](C(=O)NCC(N)=O)C(C)C)NC(=O)[C@H](CC(C)C)NC(=O)[C@H](CCC(N)=O)NC(=O)[C@H](C)NC(=O)[C@H](Cc2c[nH]c3ccccc23)NC(=O)[C@H](Cc2ccc(O)cc2)NC(=O)[C@H](C(C)C)NC1=O)[C@@H](C)O (single isomer, unassigned) [compound 146]",100 to 1000 nM,10 to 100 nM,< 10 nM,< 10 nM,,,,
"CC(=O)N[C@@H](CC(C)C)C(=O)N[C@H](C(=O)N[C@@H](Cc1cccc(Cl)c1)C(=O)N[C@]1(C)CCCCCCC=CCCC[C@@](C)(C(=O)N[C@@H](CO)C(=O)N[C@@H](C)C(=O)N[C@@H](C)C(N)=O)NC(=O)[C@H](CC(C)C)NC(=O)[C@H](CCC(N)=O)NC(=O)[C@H](C)NC(=O)[C@H](Cc2c[nH]c3ccccc23)NC(=O)[C@H](Cc2ccc(O)cc2)NC(=O)[C@H](CCC(=O)O)NC1=O)[C@@H](C)O (single isomer, unassigned) [compound 156]",100 to 1000 nM,10 to 100 nM,< 10 nM,< 10 nM,,,,
"CC(=O)N[C@@H](CC(C)C)C(=O)N[C@H](C(=O)N[C@@H](Cc1ccccc1)C(=O)N[C@]1(C)CCCCCCC=CCCC[C@@](C)(C(=O)N[C@@H](CO)C(=O)N[C@@H](C)C(=O)N[C@@H](C)C(N)=O)NC(=O)[C@H](CC(C)C)NC(=O)[C@H](CCC(N)=O)NC(=O)[C@H](C)NC(=O)[C@H](Cc2c[nH]c3ccccc23)NC(=O)[C@H](CCC(=O)O)NC(=O)[C@H](C)NC1=O)[C@@H](C)O (single isomer, unassigned) [compound 166]",100 to 1000 nM,10 to 100 nM,< 10 nM,< 10 nM,,,,
"CC(=O)N[C@@H](CC(C)C)C(=O)N[C@H](C(=O)N[C@@H](Cc1ccccc1)C(=O)N[C@]1(C)CCCCCCC=CCCC[C@@](C)(C(=O)N[C@@H](CO)C(=O)N[C@@H](C)C(=O)N[C@@H](C)C(N)=O)NC(=O)[C@H](CC(C)C)NC(=O)[C@H](CCC(N)=O)NC(=O)[C@H](C)NC(=O)[C@H](Cc2c[nH]c3ccccc23)NC(=O)[C@H](CO)NC(=O)[C@H](C)NC1=O)[C@@H](C)O (single isomer, unassigned) [compound 167]",100 to 1000 nM,100 to 1000 nM,10 to 100 nM,< 10 nM,,,,
"CC[C@H](C)[C@H](NC(C)=O)C(=O)N[C@H](C(=O)N[C@@H](Cc1ccccc1)C(=O)N[C@]1(C)CCCCCCC=CCCC[C@@](C)(C(=O)N[C@@H](C)C(=O)N[C@@H](C)C(=O)N[C@H](C(=O)N[C@H](C)C(N)=O)[C@@H](C)CC)NC(=O)[C@H](CC(C)C)NC(=O)[C@H](CCC(N)=O)NC(=O)[C@H](C)NC(=O)[C@H](Cc2c[nH]c3ccccc23)NC(=O)[C@H](Cc2c[nH]cn2)NC(=O)[C@H](CCC(=O)O)NC1=O)[C@@H](C)O (single isomer, unassigned) [compound 173]",100 to 1000 nM,10 to 100 nM,< 10 nM,< 10 nM,,,,
"CC[C@H](C)[C@H](NC(C)=O)C(=O)N[C@H](C(=O)N[C@@H](Cc1ccccc1)C(=O)N[C@]1(C)CCCCCCC=CCCC[C@@](C)(C(=O)N[C@@H](C)C(=O)N[C@@H](Cc2c[nH]cn2)C(=O)N[C@@H](Cc2ccccc2)C(=O)N[C@@H](C)C(N)=O)NC(=O)[C@H](CC(C)C)NC(=O)[C@H](CCC(N)=O)NC(=O)[C@H](C)NC(=O)[C@H](Cc2c[nH]c3ccccc23)NC(=O)[C@H](Cc2ccc(O)cc2)NC(=O)[C@H](Cc2ccccc2)NC1=O)[C@@H](C)O (single isomer, unassigned) [compound 185]",> 1000 nM,100 to 1000 nM,10 to 100 nM,< 10 nM,,,,
"CC[C@H](C)[C@H](NC(C)=O)C(=O)N[C@H](C(=O)N[C@@H](Cc1ccccc1)C(=O)N[C@]1(C)CCCCCCC=CCCC[C@@](C)(C(=O)N[C@@H](C)C(=O)N[C@@H](Cc2c[nH]cn2)C(=O)N[C@@H](Cc2ccccc2)C(=O)N[C@@H](C)C(N)=O)NC(=O)[C@H](CC(C)C)NC(=O)[C@H](CCC(N)=O)NC(=O)[C@H](C)NC(=O)[C@H](Cc2c[nH]c3ccccc23)NC(=O)[C@H](Cc2c[nH]cn2)NC(=O)[C@H](CCC(=O)O)NC1=O)[C@@H](C)O (single isomer, unassigned) [compound 189]",100 to 1000 nM,10 to 100 nM,10 to 100 nM,< 10 nM,,,,
"CC[C@H](C)[C@H](NC(C)=O)C(=O)N[C@H](C(=O)N[C@@H](Cc1ccccc1)C(=O)N[C@]1(C)CCCCCCC=CCCC[C@@](C)(C(=O)N[C@@H](C)C(=O)N[C@@H](Cc2c[nH]cn2)C(=O)N[C@@H](Cc2ccccc2)C(=O)N[C@@H](C)C(N)=O)NC(=O)[C@H](CC(C)C)NC(=O)[C@H](CCC(N)=O)NC(=O)[C@H](C(C)C)NC(=O)[C@H](Cc2c[nH]c3ccccc23)NC(=O)[C@H](Cc2c[nH]cn2)NC(=O)[C@H](CCC(=O)O)NC1=O)[C@@H](C)O (single isomer, unassigned) [compound 194]",100 to 1000 nM,100 to 1000 nM,10 to 100 nM,< 10 nM,,,,
"CC(=O)N[C@@H](CC(C)C)C(=O)N[C@H](C(=O)N[C@@H](Cc1ccccc1)C(=O)N[C@]1(C)CCCCCCC=CCCC[C@@](C)(C(=O)N[C@@H](CO)C(=O)N[C@@H](C)C(=O)N[C@@H](C)C(N)=O)NC(=O)[C@H](CC(C)C)NC(=O)[C@H](C)NC(=O)[C@H](C)NC(=O)[C@H](Cc2c[nH]c3ccccc23)NC(=O)[C@H](CCC(=O)O)NC(=O)[C@H](C)NC1=O)[C@@H](C)O (single isomer, unassigned) [compound 199]",,,,,100 to 1000 nM,100 to 1000 nM,10 to 100 nM,< 10 nM
"CC(=O)N[C@@H](CC(C)C)C(=O)N[C@H](C(=O)N[C@@H](Cc1ccccc1)C(=O)N[C@]1(C)CCCCCCC=CCCC[C@@](C)(C(=O)N[C@@H](CO)C(=O)N[C@@H](C)C(=O)N[C@@H](C)C(N)=O)NC(=O)[C@H](CC(C)C)NC(=O)[C@H](C)NC(=O)[C@H](C)NC(=O)[C@H](Cc2c[nH]c3ccccc23)NC(=O)[C@H](CO)NC(=O)[C@H](C)NC1=O)[C@@H](C)O (single isomer, unassigned) [compound 201]",100 to 1000 nM,100 to 1000 nM,10 to 100 nM,< 10 nM,,,,
"CC[C@H](C)[C@H](NC(=O)[C@H](Cc1c[nH]cn1)NC(=O)[C@H](C)NC(=O)[C@]1(C)CCCC=CCCCCCC[C@@](C)(NC(=O)[C@H](Cc2ccccc2)NC(=O)[C@@H](NC(=O)[C@H](CC(C)C)NC(C)=O)[C@@H](C)O)C(=O)N[C@@H](CCC(=O)O)C(=O)N[C@@H](Cc2c[nH]cn2)C(=O)N[C@@H](Cc2c[nH]c3ccccc23)C(=O)N[C@@H](C)C(=O)N[C@@H](CCC(N)=O)C(=O)N[C@@H](CC(C)C)C(=O)N1)C(=O)N[C@H](C)C(N)=O (single isomer, unassigned) [compound 206]",100 to 1000 nM,10 to 100 nM,10 to 100 nM,< 10 nM,,,,
"CC(=O)N[C@@H](CC(C)C)C(=O)N[C@H](C(=O)N[C@@H](Cc1ccccc1)C(=O)N[C@]1(C)CCCCCCC=CCCC[C@@](C)(C(=O)N[C@@H](C)C(=O)N[C@@H](C)C(=O)N[C@@H](Cc2ccccc2)C(=O)N[C@H](C)C(N)=O)NC(=O)[C@H](CC(C)C)NC(=O)[C@H](CCC(N)=O)NC(=O)[C@H](C)NC(=O)[C@H](Cc2c[nH]c3ccccc23)NC(=O)[C@H](Cc2ccc(O)cc2)NC(=O)[C@H](C)NC1=O)[C@@H](C)O (single isomer, unassigned) [compound 210]",100 to 1000 nM,10 to 100 nM,< 10 nM,< 10 nM,,,,
"CC(=O)N[C@@H](CC(C)C)C(=O)N[C@H](C(=O)N[C@@H](Cc1ccccc1)C(=O)N[C@]1(C)CCCCCCC=CCCC[C@@](C)(C(=O)N[C@@H](C)C(=O)N[C@@H](C)C(=O)N[C@H](C(=O)N[C@H](C)C(N)=O)C(C)C)NC(=O)[C@H](CC(C)C)NC(=O)[C@H](CCC(N)=O)NC(=O)[C@H](C)NC(=O)[C@H](Cc2c[nH]c3ccccc23)NC(=O)[C@H](Cc2ccc(O)cc2)NC(=O)[C@H](C)NC1=O)[C@@H](C)O (single isomer, unassigned) [compound 213]",100 to 1000 nM,10 to 100 nM,< 10 nM,< 10 nM,,,,

# Source: patent US8927500B2, “Peptidomimetic macrocycles” (Aileron Therapeutics, Inc., priority 2012, dated 2015)
